We go through nine compounds from patent US20100249071A1, “Modulators of S1P and Methods of Making And Using” (Exelixis, Inc., priority 2009, published 2010).

The target of test [1] is T1, hS1P1R (hEdg1) membrane protein (Homo sapiens, UniProt P21453).
T1 construct: purchased Lonza
In words: hS1P1R GTPγS binding assay (Assay 3a). The class given is biochemical. The protocol:
Assay 3a: The hS1P1R GTPγS binding assay was carried out at room temperature in 96 well non-binding surface assay plates. The reaction in each well contained 4 μg hS1P1R (hEdg1) membrane protein (Lonza), 30 μM GDP, 0.1 nM [^35S]GTPγS, 0.25% fatty acid free BSA, and serially diluted hS1P1R agonist compound in 200 μL assay buffer (25 mM Tris-HCl PH 7.9, 100 mM NaCl, 3 mM MgCl2, and 0.2 mM EGTA). After one hour of incubation, 0.9 mg of WGA (Wheat Germ Agglutinin) SPA beads in 50 μL of assay buffer was added to each well. The SPA beads were spun down after an additional one hour incubation. The radioactivity of the bound GTPγS was counted by reading the assay plate using a MicroBeta.

In a further test the target is T2, S1P1 (Homo sapiens, UniProt P21453).
T2 construct: host or cells: U2OS
Nature of the test: Tango β-arrestin recruitment assay in U2OS cells (Assay 2b). The following applies: read-out: Assay 2b EC50. The class given is cell-based. An excerpt:
(§1) For the Tango™ β-arrestin recruitment assay, the cytoplasmic C-terminus of S1P1 was tethered to the tTA transcriptional activator with a linker that contains a cleavage site for the N1a protease from tobacco etch virus (TEV protease). The C-terminus of the human β-arrestin2 protein was fused to TEV protease. Binding of an agonist recruits the βl -arrestin-TEV fusion protein to the receptor resulting in cleavage of the linker and released of tTA to enter the nucleus and subsequently activated a tTA-dependent luciferase reporter gene.
Assay 2b: Alternatively, U2OS cells expressing the reporter gene and S1P1 (Invitrogen) were added to the wells of a 384-well white opaque bottom assay plate (PerkinElmer) at […]. The cells were serum starved for 48 h in Freestyle medium (Invitrogen). Test compounds were tested at maximum concentrations of 1 μM for the agonist assay. Compounds were diluted in DMSO (10 concentration points, 3-fold each) and added to the assay plate at a 1% final DMSO concentration. The efficacy control was 1 μM S1P (Avanti). For each compound, there were duplicate assay plates and each assay plate had duplicate wells per concentration point. The plate was incubated overnight at 37° C. The GeneBLAzer β-lactamase assay reagent (Invitrogen) was added and the plates were incubated for an additional 2 h at room temperature. Fluorescence was measured using an EnVision plate reader (PerkinElmer, Waltham, Mass.) at an excitation wavelength of 409 nm and emission wavelengths of 460 nm and 530 nm. The emission intensity at each wavelength was background subtracted against wells containing medium only and the F460 nm/F530 nm ratio determined for each concentration of the test compounds. Percent activity was calculated as [(test compound ratio−DMSO ratio)/(positive control ratio−DMSO ratio)*100], where the positive control and DMSO ratios are from cells incubated with the efficacy control 1 μM S1P and 1% DMSO, respectively. The percent activities were plotted against compound concentration to determine EC50 using XLFit (IDBS).
(Arrestin recruitment assays detect the binding of arrestin to an activated receptor.)

The target in test [2] is T3, hS1PR5 (hEdg8) membrane protein (Homo sapiens, UniProt Q9H228).
T3 construct: expressed in transfected cells; host or cells: CHO
Nature of the test: hS1P5R GTPγS binding assay (Assay 4). The class given is biochemical. As for the experimental part: The hS1PR5 GTPγS binding assay was carried out at room temperature in 96-well non-binding surface assay plates. The reaction in each well contained 5 μg hS1PR5 (hEdg8) membrane protein from CHO cells expressing hS1PR5, 30 μM GDP, 0.1 nM [^35S]GTPγS, 0.25% fatty acid free BSA, and serially-diluted Compound of the Invention in 200 μL assay buffer (25 mM Tris-HCl PH 7.9, 100 mM NaCl, 3 mM MgCl2, and 0.2 mM EGTA). After one hour of incubation, 0.9 mg of WGA (Wheat Germ Agglutinin) SPA beads in 50 μL of assay buffer was added to each well. The SPA beads were spun down after an additional one hour incubation. The radioactivity of the bound GTPγS was counted by reading the assay plate using a MicroBeta.

Another test has as its target T4, S1P3 (Homo sapiens, UniProt Q99500).
T4 construct: host or cells: HEK293 (transient transfection)
Nature of the test: S1P3 Tango β-arrestin recruitment assay in HEK293 cells (Assay 5). The class given is cell-based.
Text: as §1
Assay 2a: Frozen HEK293 cells transiently transfected with receptor cDNAs for S1P1 (Invitrogen) are thawed and suspended in 10 mL of Pro293a-CDM culture medium (Invitrogen) supplemented with 4 mM L-Glutamine (Invitrogen), 1× Pen/Strep (100 units/mL penicillin and 100 μg/mL streptomycin, Invitrogen) and 0.1% fatty acid free BSA (Sigma-Aldrich). Cells are added to the wells of a 384-well white opaque bottom assay plate (PerkinElmer) at 3,000-6,000 cells per well and the plate is incubated for approximately 4 h in a 37° C. incubator. Test compounds are tested at maximum concentrations of 10 μM for the agonist assays. Compounds are diluted in DMSO (10 concentration points, 3-fold each) and added to the assay plate at a 1% final DMSO concentration. For each compound, there are duplicate assay plates and each assay plate has duplicate wells per concentration point. The plate is incubated at 37° C. for 30 min. The efficacy control is 5 μM S1P (Avanti). Following agonist addition, the assay plates are incubated in a 37° C. incubator for 16-18 h. Luciferase assay reagent is added and luminescence measured in an EnVision plate reader (PerkinElmer). To determine agonist activity, percent activity is calculated as [(test compound−background)/(positive control−background)*100], where background is the luminescence of the DMSO alone control and the positive control is the luminescence from cells incubated with the efficacy control 5 μM S1P. The percent activities are plotted against compound concentration to determine EC50 using XLFit (IDBS).
This assay was conducted using the procedures described in Assay 2a, replacing S1P1 with S1P3.

Like-named read-outs stand apart in the source and are kept apart here. Where only a bound is given, the exact number is not on record here.

T2 sequence (P32121 whole entry): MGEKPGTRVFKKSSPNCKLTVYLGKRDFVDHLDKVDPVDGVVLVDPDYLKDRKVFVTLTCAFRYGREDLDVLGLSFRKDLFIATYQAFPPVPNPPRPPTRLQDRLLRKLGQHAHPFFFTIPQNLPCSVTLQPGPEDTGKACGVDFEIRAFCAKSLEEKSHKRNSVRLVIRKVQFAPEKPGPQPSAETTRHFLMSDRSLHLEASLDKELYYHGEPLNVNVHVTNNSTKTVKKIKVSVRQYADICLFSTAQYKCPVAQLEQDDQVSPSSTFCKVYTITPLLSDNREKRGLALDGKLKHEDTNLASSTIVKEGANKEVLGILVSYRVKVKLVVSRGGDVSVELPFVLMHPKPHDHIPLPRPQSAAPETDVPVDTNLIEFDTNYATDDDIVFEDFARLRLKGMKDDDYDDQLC
T2 sequence (P21453 whole entry): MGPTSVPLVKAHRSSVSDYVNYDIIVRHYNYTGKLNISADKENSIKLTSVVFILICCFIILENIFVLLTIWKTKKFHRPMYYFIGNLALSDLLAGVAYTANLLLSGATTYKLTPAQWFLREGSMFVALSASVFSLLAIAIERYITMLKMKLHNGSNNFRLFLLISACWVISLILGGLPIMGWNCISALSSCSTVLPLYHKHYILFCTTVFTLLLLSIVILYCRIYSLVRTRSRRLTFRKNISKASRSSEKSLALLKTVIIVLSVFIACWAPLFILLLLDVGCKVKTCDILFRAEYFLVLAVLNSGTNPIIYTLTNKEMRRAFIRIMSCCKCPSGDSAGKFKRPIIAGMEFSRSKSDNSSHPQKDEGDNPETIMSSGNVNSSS
T4 sequence (P32121 whole entry): as the sequence (P32121 whole entry) above
T4 sequence (Q99500 whole entry): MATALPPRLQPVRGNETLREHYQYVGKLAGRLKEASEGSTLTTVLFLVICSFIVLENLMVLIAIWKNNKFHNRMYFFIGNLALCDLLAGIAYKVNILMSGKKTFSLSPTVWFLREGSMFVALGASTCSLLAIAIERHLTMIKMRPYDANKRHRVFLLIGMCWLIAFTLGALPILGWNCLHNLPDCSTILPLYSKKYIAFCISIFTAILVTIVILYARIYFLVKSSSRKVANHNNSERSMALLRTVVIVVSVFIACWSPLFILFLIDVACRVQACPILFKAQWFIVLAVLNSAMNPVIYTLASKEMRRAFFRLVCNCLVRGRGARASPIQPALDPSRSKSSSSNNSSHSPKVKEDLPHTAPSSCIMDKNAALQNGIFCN
T1 sequence (P21453 whole entry): as the sequence (P21453 whole entry) above
T3 sequence (Q9H228 whole entry): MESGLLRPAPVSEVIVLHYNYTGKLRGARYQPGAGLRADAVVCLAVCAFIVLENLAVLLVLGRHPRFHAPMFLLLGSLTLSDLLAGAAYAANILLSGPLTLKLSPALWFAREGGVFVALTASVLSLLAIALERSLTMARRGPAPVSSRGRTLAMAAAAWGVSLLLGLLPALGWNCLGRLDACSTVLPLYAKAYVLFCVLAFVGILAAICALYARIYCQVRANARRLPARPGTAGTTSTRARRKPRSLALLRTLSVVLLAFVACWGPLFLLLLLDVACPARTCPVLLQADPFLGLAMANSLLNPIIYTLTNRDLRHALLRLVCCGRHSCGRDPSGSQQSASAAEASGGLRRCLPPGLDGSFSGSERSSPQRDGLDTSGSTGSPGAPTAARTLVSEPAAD

In the case of `N[C@H](CO)COc1cc(Cl)c(-c2nnc(-c3cccc(Cl)c3)s2)cc1F` [Entry 15, (2R)-2-amino-3-({5-chloro-4-[5-(3-chlorophenyl)-1,3,4-thiadiazol-2-yl]-2-fluorophenyl}oxy)propan-1-ol], the 50% effective concentration (EC50) is 0.25 to 2.8 µM in test [1], 0.01 to 0.05 µM on S1P1, 0.25 to 2.8 µM in test [2] and over 10 µM on S1P3 (read-out: Assay 5 EC50).
Regarding `CC(C)Oc1ccc(-c2nnc(-c3cc(F)c(OC[C@@H](N)COP(=O)(O)O)cc3Cl)s2)cc1Cl` [Entry 16, (2R)-2-amino-3-{[5-chloro-4-(5-{3-chloro-4-[(1-methylethyl)oxy]phenyl}-1,3,4-thiadiazol-2-yl)-2-fluorophenyl]oxy}propyl dihydrogen phosphate], the EC50 in test [1] was at most 0.01 µM; on S1P1, at most 0.01 µM; in test [2], 0.01 to 0.05 µM; at S1P3 (* = rEC50 measured rather than EC50, read-out: Assay 5 rEC50 (relative EC50, cells marked *)) it was at most 0.25 µM.
Consider `CCCOc1ccc(-c2nnc(-c3cc(F)c(OC[C@H](N)CO)cc3Cl)s2)cc1Cl` [Entry 17, (2R)-2-amino-3-[(5-chloro-4-{5-[3-chloro-4-(propyloxy)phenyl]-1,3,4-thiadiazol-2-yl}-2-fluorophenyl)oxy]propan-1-ol], for which the EC50 in test [1] is 0.01 to 0.05 µM; at S1P1, 0.05 to 0.25 µM; in test [2], 0.05 to 0.25 µM; on S1P3 (read-out: Assay 5 EC50), over 10 µM.
As to `CC(C)Oc1ccc(-c2nnc(-c3cc(F)c(OC[C@H](N)CO)cc3Cl)s2)cc1C(F)(F)F` [Entry 18, (2R)-2-amino-3-{[5-chloro-2-fluoro-4-(5-{4-[(1-methylethyl)oxy]-3-(trifluoromethyl)phenyl}-1,3,4-thiadiazol-2-yl)phenyl]oxy}propan-1-ol], the half-maximal effective concentration (EC50) was at most 0.01 µM in test [1], 0.01 to 0.05 µM on S1P1, 0.01 to 0.05 µM in test [2] and over 10 µM at S1P3 (read-out: Assay 5 EC50).
As to `CC(C)Oc1ccc(-c2nnc(-c3cc(F)c(OCC(N)CO)cc3Cl)s2)cn1` (stereo not drawn) [Entry 19, 2-amino-3-{[5-chloro-2-fluoro-4-(5-{6-[(1-methylethyl)oxy]pyridin-3-yl}-1,3,4-thiadiazol-2-yl)phenyl]oxy}propan-1-ol], the EC50 in test [1] was 0.05 to 0.25 µM; at S1P1 it was at most 0.01 µM; in test [2], 0.25 to 2.8 µM; at S1P3 (read-out: Assay 5 EC50), over 0.25 µM.
For `CC(C)Oc1ncc(-c2nnc(-c3cc(F)c(OC[C@H](N)CO)cc3Cl)s2)cc1Cl` [Entry 20, (2R)-2-amino-3-{[5-chloro-4-(5-{5-chloro-6-[(1-methylethyl)oxy]pyridin-3-yl}-1,3,4-thiadiazol-2-yl)-2-fluorophenyl]oxy}propan-1-ol], the concentration for a half-maximal effect (EC50) in test [1] is 0.05 to 0.25 µM; on S1P1, 0.25 to 2.8 µM; in test [2] it was 0.25 to 2.8 µM; on S1P3 (read-out: Assay 5 EC50), over 10 µM.
In the case of `CC(C)N(C)c1cc(-c2nnc(-c3cc(F)c(OC[C@H](N)CO)cc3Cl)s2)cc(Cl)n1` [Entry 21, (2R)-2-amino-3-{[5-chloro-4-(5-{2-chloro-6-[methyl(1-methylethyl)amino]pyridin-4-yl}-1,3,4-thiadiazol-2-yl)-2-fluorophenyl)oxy}propan-1-ol], the EC50 in test [1] is 0.05 to 0.25 µM; on S1P1, 0.01 to 0.05 µM; in test [2], 0.05 to 0.25 µM; at S1P3 (read-out: Assay 5 EC50), over 10 µM.
Consider `CC(C)Oc1ccc(-c2nnc(-c3cc(F)c(OC[C@H](N)CO)cc3Cl)s2)nc1Cl` [Entry 22, (2R)-2-amino-3-{[5-chloro-4-(5-{6-chloro-5-[(1-methylethyl)oxy]pyridin-2-yl}-1,3,4-thiadiazol-2-yl)-2-fluorophenyl]oxy}propan-1-ol], for which the concentration for a half-maximal effect (EC50) in test [1] was 0.01 to 0.05 µM; at S1P1, 0.01 to 0.05 µM; in test [2] it was 0.05 to 0.25 µM; on S1P3 (read-out: Assay 5 EC50), over 10 µM.
Regarding `N[C@H](CO)COc1cc(Cl)c(-c2nnc(-c3cc(F)cc(Br)c3)s2)cc1F` [Entry 24, (2R)-2-amino-3-({4-[5-(3-bromo-5-fluorophenyl)-1,3,4-thiadiazol-2-yl]-5-chloro-2-fluorophenyl}oxy)propan-1-ol], the 50% effective concentration (EC50) is 0.25 to 2.8 µM in test [1], 0.05 to 0.25 µM on S1P1, 0.25 to 2.8 µM in test [2] and over 10 µM at S1P3 (read-out: Assay 5 EC50).

One may read the EC50 as the concentration that produces a half-maximal response.
